Experimental data reported in PubChem BioAssay (NCI).
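Protocol summary: plate cells (96-well), add compound at 5 concentrations, incubate 48 h, interpolate endpoints linearly. TGI denotes the concentration required for complete inhibition of growth.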

Assays:
Test in all cases: DTP human tumour cell line panel, 48 h
[1] = system: 786-0 renal
[2] = system: A498 renal
[3] = system: A549 NSCLC
[4] = system: ACHN renal
[5] = system: BT-549 breast
[6] = system: CAKI-1 renal
[7] = system: CCRF-CEM leukemia
[8] = system: COLO 205 colon
[9] = system: DU-145 prostate
[10] = system: EKVX NSCLC
[11] = system: HCC-2998 colon
[12] = system: HCT-116 colon
[13] = system: HCT-15 colon
[14] = system: HL-60(TB) leukemia
[15] = system: HOP-62 NSCLC
[16] = system: HOP-92 NSCLC
[17] = system: HS 578T breast
[18] = system: HT29 colon
[19] = system: IGROV1 ovarian
[20] = system: K-562 leukemia
[21] = system: KM12 colon
[22] = system: LOX IMVI melanoma
[23] = system: M14 melanoma
[24] = system: MALME-3M melanoma
[25] = system: MCF7 breast
[26] = system: MDA-MB-231 breast
[27] = system: MDA-MB-435
[28] = system: MDA-N
[29] = system: MOLT-4 leukemia
[30] = system: NCI-H226 lung
[31] = system: NCI-H23 lung
[32] = system: NCI-H460 lung
[33] = system: NCI-H522 lung
[34] = system: NCI/ADR-RES ovarian
[35] = system: OVCAR-3 ovarian
[36] = system: OVCAR-4 ovarian
[37] = system: OVCAR-5 ovarian
[38] = system: OVCAR-8 ovarian
[39] = system: PC-3 prostate
[40] = system: RPMI-8226 leukemia
[41] = system: RXF 393 renal
[42] = system: SF-268 CNS
[43] = system: SF-295 CNS
[44] = system: SF-539 CNS
[45] = system: SK-MEL-2 melanoma
[46] = system: SK-MEL-28 melanoma
[47] = system: SK-MEL-5 melanoma
[48] = system: SK-OV-3 ovarian
[49] = system: SN12C renal
[50] = system: SNB-19 CNS
[51] = system: SNB-75 CNS
[52] = system: SR leukemia
[53] = system: SW-620 colon
[54] = system: T-47D breast
[55] = system: TK-10 renal
[56] = system: U251 CNS
[57] = system: UACC-257 melanoma
[58] = system: UACC-62 melanoma
[59] = system: UO-31 renal
[60] = system: DLD-1 colon
[61] = system: DMS 114 small cell lung
[62] = system: DMS 273 small cell lung
[63] = system: KM20L2 colon
[64] = system: LXFL 529 NSCLC
[65] = system: M19-MEL melanoma

SMILES: O=C(c1c2c(cc3c1CC1(Cc4cc5c(cc4C1)CCCC5)C3)CCCC2)C(Br)Br
- TGI [1]: 29.1 µM
- TGI [2]: 86.6 µM
- TGI [3]: > 100 µM
- TGI [4]: 27 µM
- TGI [5]: 21.6 µM
- TGI [6]: 24.2 µM
- TGI [7]: 5.14 µM
- TGI [8]: 32.7 µM
- TGI [9]: > 100 µM
- TGI [10]: > 59.8 µM
- TGI [11]: 54.3 µM
- TGI [12]: 29.1 µM
- TGI [13]: 33 µM
- TGI [14]: > 39.1 µM
- TGI [15]: > 81.7 µM
- TGI [16]: 31.9 µM
- TGI [17]: > 70.2 µM
- TGI [18]: 44.5 µM
- TGI [19]: 27.1 µM
- TGI [20]: 18 µM
- TGI [21]: 56.3 µM
- TGI [22]: 3.42 µM
- TGI [23]: 15.7 µM
- TGI [24]: 10.7 µM
- TGI [25]: 20.2 µM
- TGI [26]: 38.2 µM
- TGI [27]: 28.7 µM
- TGI [28]: 29 µM
- TGI [29]: 6.33 µM
- TGI [30]: 14.3 µM
- TGI [31]: 36.5 µM
- TGI [32]: > 100 µM
- TGI [33]: 3.18 µM
- TGI [34]: 50.7 µM
- TGI [35]: 38.9 µM
- TGI [36]: 41.6 µM
- TGI [37]: > 66.7 µM
- TGI [38]: 50.4 µM
- TGI [39]: 26.9 µM
- TGI [40]: > 61.9 µM
- TGI [41]: 28.7 µM
- TGI [42]: 41.7 µM
- TGI [43]: > 100 µM
- TGI [44]: 38.3 µM
- TGI [45]: 39.6 µM
- TGI [46]: 30.7 µM
- TGI [47]: 14.4 µM
- TGI [48]: 96.9 µM
- TGI [49]: 44.9 µM
- TGI [50]: > 55.1 µM
- TGI [51]: 31.7 µM
- TGI [52]: 8.05 µM
- TGI [53]: 20.5 µM
- TGI [54]: 27.9 µM
- TGI [55]: 30.9 µM
- TGI [56]: 30.3 µM
- TGI [57]: 41.9 µM
- TGI [58]: 34.3 µM
- TGI [59]: 26.8 µM

SMILES: O=C(/C=C/c1cccc(Br)c1)c1ccc(Cl)cc1
- TGI [1]: 28.3 µM
- TGI [2]: 26.5 µM
- TGI [3]: 33.5 µM
- TGI [4]: 30.4 µM
- TGI [5]: 31.9 µM
- TGI [6]: 40.1 µM
- TGI [7]: 24.9 µM
- TGI [8]: 30.9 µM
- TGI [9]: 30.3 µM
- TGI [10]: 29.7 µM
- TGI [11]: 33.7 µM
- TGI [12]: 18 µM
- TGI [13]: 31.1 µM
- TGI [14]: 44.5 µM
- TGI [15]: 35.9 µM
- TGI [16]: 31.7 µM
- TGI [17]: 57.3 µM
- TGI [18]: 24.5 µM
- TGI [19]: 35.8 µM
- TGI [20]: 45.7 µM
- TGI [21]: 32.5 µM
- TGI [22]: 28 µM
- TGI [23]: 28.1 µM
- TGI [24]: 29 µM
- TGI [25]: 16.3 µM
- TGI [26]: 35.2 µM
- TGI [27]: 25.5 µM
- TGI [28]: 20 µM
- TGI [29]: 77.8 µM
- TGI [30]: 33.7 µM
- TGI [31]: 32.7 µM
- TGI [32]: 37.3 µM
- TGI [33]: 30.5 µM
- TGI [34]: 59.2 µM
- TGI [35]: 32.3 µM
- TGI [36]: 32.1 µM
- TGI [37]: 30.6 µM
- TGI [38]: 32.1 µM
- TGI [39]: 28.2 µM
- TGI [40]: 6.31 µM
- TGI [41]: 35.5 µM
- TGI [42]: 34.1 µM
- TGI [43]: 32.6 µM
- TGI [44]: 30.4 µM
- TGI [45]: 29.3 µM
- TGI [46]: 29.1 µM
- TGI [47]: 27.2 µM
- TGI [48]: 43.6 µM
- TGI [49]: 32.4 µM
- TGI [50]: 30.1 µM
- TGI [51]: 28.1 µM
- TGI [52]: 20.4 µM
- TGI [53]: 13.3 µM
- TGI [54]: 32.1 µM
- TGI [55]: 27.2 µM
- TGI [56]: 18.6 µM
- TGI [57]: 32.1 µM
- TGI [58]: 29 µM
- TGI [59]: 29.3 µM

SMILES: CC(C)C1CNC2N1C(=O)C2(C)OCc1ccccc1 (configuration not stated)
- TGI [1]: > 100 µM
- TGI [2]: > 100 µM
- TGI [3]: > 100 µM
- TGI [4]: > 100 µM
- TGI [7]: > 100 µM
- TGI [8]: > 100 µM
- TGI [60]: > 100 µM
- TGI [61]: > 100 µM
- TGI [62]: > 100 µM
- TGI [10]: > 100 µM
- TGI [11]: > 100 µM
- TGI [12]: > 100 µM
- TGI [13]: > 100 µM
- TGI [14]: > 100 µM
- TGI [15]: > 100 µM
- TGI [18]: > 100 µM
- TGI [19]: > 100 µM
- TGI [20]: > 100 µM
- TGI [63]: > 100 µM
- TGI [22]: > 100 µM
- TGI [64]: > 100 µM
- TGI [23]: > 100 µM
- TGI [65]: > 100 µM
- TGI [24]: > 100 µM
- TGI [29]: > 100 µM
- TGI [30]: > 100 µM
- TGI [31]: > 100 µM
- TGI [32]: > 100 µM
- TGI [35]: > 100 µM
- TGI [36]: > 100 µM
- TGI [38]: > 100 µM
- TGI [40]: > 100 µM
- TGI [41]: > 100 µM
- TGI [42]: > 100 µM
- TGI [43]: > 100 µM
- TGI [44]: > 100 µM
- TGI [45]: > 100 µM
- TGI [46]: > 100 µM
- TGI [47]: > 100 µM
- TGI [49]: > 100 µM
- TGI [50]: > 100 µM
- TGI [51]: > 100 µM
- TGI [52]: > 100 µM
- TGI [53]: > 100 µM
- TGI [55]: > 100 µM
- TGI [56]: > 100 µM
- TGI [57]: > 100 µM
- TGI [58]: > 100 µM
- TGI [59]: > 100 µM
